Results published in ChEMBL document CHEMBL1201862, “PubChem BioAssay data set” (2004).
Values joined by “and” are separate entries in the source; they are usually repeats but may differ in a detail not shown here. Identical values can stand only once. Active and inactive are the calls of the source.

Assays:
[1] = Luminescence Cell-Based Dose Retest to Confirm Inhibitors of Cancer Stem Cells. [Related pubchem assays (depositor defined):AID2717, AID2721]; type: functional; conditions: Homo sapiens
[2] = target: Cytochrome P450 3A4 (Homo sapiens, UniProt P08684);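 also: CYP3A4 tested as one member of a cytochrome P450 panel screen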
Cytochrome P450 3A4, sequence (P08684 whole entry): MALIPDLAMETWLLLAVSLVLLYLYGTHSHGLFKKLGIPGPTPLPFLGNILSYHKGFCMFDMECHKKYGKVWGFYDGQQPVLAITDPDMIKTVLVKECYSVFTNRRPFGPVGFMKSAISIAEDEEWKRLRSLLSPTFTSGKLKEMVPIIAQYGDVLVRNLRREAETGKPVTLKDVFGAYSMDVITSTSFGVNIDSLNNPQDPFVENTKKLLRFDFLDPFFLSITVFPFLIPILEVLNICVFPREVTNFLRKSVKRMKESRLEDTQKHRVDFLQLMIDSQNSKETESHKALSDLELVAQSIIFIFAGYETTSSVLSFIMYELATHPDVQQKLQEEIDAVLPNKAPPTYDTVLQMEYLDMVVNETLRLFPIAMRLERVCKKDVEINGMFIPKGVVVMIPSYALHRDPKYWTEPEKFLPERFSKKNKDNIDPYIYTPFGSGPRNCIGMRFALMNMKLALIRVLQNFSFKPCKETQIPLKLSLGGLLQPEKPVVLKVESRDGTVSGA

[3] = target: Cytochrome P450 2C19 (Homo sapiens, UniProt P33261); assay: Cytochrome panel assay with activity outcomes. Panel member name: p450-cyp2c19 Compounds with AC50 equal or less than 10 uM are considered active; type: functional; conditions: read-out: AC50
Cytochrome P450 2C19, sequence (P33261 whole entry): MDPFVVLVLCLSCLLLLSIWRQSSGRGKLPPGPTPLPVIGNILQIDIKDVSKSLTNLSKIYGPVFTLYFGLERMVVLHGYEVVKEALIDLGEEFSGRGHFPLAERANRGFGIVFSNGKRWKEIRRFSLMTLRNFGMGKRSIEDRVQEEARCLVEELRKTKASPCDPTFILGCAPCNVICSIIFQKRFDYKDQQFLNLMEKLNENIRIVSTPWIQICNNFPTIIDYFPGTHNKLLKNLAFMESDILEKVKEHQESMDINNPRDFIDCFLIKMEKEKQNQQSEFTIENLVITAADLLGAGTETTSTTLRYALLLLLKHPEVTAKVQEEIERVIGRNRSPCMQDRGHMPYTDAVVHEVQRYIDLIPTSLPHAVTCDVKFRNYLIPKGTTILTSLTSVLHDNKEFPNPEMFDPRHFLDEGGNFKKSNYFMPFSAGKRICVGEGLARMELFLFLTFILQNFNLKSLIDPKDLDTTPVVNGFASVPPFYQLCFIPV

[4] = target: T1, Cytochrome P450 1A2 (Homo sapiens, UniProt P05177);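 also: PubChem cytochrome P450 panel assay, CYP1A2 panel member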
T1 sequence (P05177 whole entry): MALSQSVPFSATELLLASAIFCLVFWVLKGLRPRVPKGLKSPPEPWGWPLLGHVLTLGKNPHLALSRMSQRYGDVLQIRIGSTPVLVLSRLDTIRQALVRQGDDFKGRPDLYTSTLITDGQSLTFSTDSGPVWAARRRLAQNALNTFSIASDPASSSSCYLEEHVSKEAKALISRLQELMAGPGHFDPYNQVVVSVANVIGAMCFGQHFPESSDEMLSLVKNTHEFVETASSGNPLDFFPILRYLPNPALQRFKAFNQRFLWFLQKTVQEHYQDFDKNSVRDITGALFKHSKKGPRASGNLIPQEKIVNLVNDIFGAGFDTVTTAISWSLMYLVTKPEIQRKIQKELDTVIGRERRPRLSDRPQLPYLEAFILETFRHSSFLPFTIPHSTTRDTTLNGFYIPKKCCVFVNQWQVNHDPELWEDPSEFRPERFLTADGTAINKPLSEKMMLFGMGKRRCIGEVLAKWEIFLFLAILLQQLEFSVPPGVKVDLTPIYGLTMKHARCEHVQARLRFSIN

[5] = target: Cytochrome P450 2C9 (Homo sapiens, UniProt P11712)
Cytochrome P450 2C9, sequence (P11712 whole entry): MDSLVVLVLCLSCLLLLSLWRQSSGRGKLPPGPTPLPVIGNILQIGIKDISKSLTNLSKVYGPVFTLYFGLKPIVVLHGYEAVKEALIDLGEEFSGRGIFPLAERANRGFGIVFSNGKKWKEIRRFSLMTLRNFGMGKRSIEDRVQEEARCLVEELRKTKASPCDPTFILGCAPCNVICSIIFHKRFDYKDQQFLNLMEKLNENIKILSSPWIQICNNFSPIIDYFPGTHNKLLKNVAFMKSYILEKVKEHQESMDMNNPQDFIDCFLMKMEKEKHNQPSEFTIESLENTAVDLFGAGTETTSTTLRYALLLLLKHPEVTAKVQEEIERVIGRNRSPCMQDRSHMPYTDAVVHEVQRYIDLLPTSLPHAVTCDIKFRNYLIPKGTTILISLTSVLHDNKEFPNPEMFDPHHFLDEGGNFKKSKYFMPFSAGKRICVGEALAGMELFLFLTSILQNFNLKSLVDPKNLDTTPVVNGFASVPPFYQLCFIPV

[6] = target: T2, Rac GTPase-activating protein 1 (Homo sapiens, UniProt Q9H0H5); assay: blockers of MgcRacGAP-driven Rac1 GTP hydrolysis – biochemical, ADP Hunter fluorescence, primary and confirmatory, confirmation (AID 624330); type: functional
T2 sequence (Q9H0H5 whole entry): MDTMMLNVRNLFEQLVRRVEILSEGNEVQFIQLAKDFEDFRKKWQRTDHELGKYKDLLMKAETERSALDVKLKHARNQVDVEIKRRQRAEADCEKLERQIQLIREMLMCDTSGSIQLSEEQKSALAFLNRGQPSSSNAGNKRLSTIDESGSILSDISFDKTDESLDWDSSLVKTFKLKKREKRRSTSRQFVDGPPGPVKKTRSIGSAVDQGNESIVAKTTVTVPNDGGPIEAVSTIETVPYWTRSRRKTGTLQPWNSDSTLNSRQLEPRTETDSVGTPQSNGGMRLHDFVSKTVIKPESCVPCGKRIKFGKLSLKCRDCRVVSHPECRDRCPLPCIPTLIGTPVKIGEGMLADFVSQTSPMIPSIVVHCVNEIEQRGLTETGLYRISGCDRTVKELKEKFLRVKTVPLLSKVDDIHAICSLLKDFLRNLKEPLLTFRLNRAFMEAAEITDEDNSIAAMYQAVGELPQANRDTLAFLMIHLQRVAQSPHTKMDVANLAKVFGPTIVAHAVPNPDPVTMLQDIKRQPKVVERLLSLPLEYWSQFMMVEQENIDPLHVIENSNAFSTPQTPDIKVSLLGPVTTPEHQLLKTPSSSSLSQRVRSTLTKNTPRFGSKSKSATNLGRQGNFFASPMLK

[7] = NIH-3T3 fibroblast cytotoxicity, dose response, cytotoxicity control, cell-based, fluorescence, Alamar Blue, secondary assay (AID 2327); type: functional;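 also: NIH-3T3 mouse fibroblasts cultured with fluconazole at 8 µg/mL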
[8] = fluconazole-exposed Candida albicans growth modulators – fluorescence, retest, confirmation (AID 2467); type: functional, cell-based
[9] = target: T3, Replicative DNA helicase DnaB (Mycobacterium tuberculosis, UniProt P9WMR3); assay: DnaB intein splicing inhibitors, dose response, biochemical, cell-free fluorescence (AID 449749); type: functional
T3 sequence (P9WMR3 whole entry): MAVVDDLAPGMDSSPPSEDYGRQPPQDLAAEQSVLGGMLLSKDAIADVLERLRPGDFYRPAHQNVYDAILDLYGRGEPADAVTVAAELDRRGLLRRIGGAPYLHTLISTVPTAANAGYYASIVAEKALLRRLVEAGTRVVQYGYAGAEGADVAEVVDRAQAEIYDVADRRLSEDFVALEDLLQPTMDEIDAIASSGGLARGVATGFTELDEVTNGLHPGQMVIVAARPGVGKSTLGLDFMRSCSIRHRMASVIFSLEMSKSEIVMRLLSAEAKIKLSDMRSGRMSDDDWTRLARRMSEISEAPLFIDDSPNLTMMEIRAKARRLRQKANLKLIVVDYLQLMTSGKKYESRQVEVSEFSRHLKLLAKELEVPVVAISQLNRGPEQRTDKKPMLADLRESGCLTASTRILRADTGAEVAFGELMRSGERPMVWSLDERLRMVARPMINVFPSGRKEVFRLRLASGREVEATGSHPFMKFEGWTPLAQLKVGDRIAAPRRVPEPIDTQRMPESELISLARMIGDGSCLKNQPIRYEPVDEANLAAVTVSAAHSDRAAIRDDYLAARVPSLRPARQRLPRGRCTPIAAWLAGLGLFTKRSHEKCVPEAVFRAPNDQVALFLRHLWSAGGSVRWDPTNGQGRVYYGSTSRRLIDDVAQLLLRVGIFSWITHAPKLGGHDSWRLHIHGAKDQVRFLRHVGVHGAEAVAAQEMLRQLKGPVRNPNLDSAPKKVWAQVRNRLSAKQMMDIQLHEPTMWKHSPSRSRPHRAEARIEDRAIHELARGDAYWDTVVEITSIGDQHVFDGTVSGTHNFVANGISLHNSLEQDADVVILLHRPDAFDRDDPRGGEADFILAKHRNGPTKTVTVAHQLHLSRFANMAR

[10] = target: T4, Protein RecA (Mycobacterium tuberculosis, UniProt P9WHJ3); assay: Fluorescence Cell-Free Homogeneous Dose Retest to Identify Inhibitors of RecA-Intein Splicing Activity. [Related pubchem assays (depositor defined):AID2097, AID2223, AID489010, AID492950]; type: functional
T4 sequence (P9WHJ3 whole entry): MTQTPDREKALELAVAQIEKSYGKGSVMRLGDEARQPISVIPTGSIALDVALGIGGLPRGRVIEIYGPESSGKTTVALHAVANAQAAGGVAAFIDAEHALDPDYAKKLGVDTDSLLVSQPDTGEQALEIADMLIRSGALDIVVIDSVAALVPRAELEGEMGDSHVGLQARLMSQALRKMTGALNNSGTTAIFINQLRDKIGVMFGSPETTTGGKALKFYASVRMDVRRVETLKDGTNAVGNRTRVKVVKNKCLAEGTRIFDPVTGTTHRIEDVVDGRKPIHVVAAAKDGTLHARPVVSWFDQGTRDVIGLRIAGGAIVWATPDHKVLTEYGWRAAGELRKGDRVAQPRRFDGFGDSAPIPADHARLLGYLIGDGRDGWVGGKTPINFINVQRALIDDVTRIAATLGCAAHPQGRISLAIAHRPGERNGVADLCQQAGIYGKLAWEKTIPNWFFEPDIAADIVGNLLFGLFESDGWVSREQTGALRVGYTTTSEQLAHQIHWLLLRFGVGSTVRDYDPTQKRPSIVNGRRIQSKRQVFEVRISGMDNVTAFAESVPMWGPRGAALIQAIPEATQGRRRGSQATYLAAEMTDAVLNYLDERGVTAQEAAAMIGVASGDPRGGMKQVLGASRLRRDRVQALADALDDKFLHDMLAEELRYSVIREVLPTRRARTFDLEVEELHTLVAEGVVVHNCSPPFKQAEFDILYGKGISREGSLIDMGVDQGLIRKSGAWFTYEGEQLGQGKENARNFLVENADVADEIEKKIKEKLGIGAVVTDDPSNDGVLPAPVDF

[11] = reduction of Shn3 3'UTR-driven luciferase in osteoblasts – cell-based, Clone20 osteoblasts, firefly luciferase, cherry-picked, dose response (AID 624132); type: functional;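 also: firefly luciferase luminescence from reporter carrying the Shn3 3'UTR in osteoblasts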
[12] = loss of viability in HepG2 cells – cell-based, CellTiter-Glo, cherry-picked, cytotoxicity control for Shn3 inhibitor project, dose response (AID 624134); type: functional
[13] = non-specific 3'UTR reporter inhibition in Clone20-Shn3RL – cell-based, Renilla luciferase, cherry-picked, counter-screen for Shn3 inhibitor project, dose response (AID 624133); type: functional

For CC(C)(C)OC(=O)N1CCC(NC(=O)c2[nH]cnc2C(=O)Nc2ccc(Cl)cc2)CC1, the AC50 [1] was 4.79 µM (active).

With COc1ccc(Oc2ncc3nc(CCc4ccccc4)c(=O)n(C4CC4)c3n2)cc1 the AC50 [2] was 5.01 µM (inconclusive).

For Clc1ccccc1-c1ccc2ncnc(N3CCNCC3)c2c1, the AC50 [3] was 31.6 µM (inconclusive) and the AC50 [2] was 25.1 µM (inconclusive).

With Cc1nnc(SCC(=O)NCC2CCCCC2)n(N)c1=O the AC50 [4] was 25.1 µM (inconclusive) and the AC50 [2] was 25.1 µM (inconclusive).

For C/C(NNc1ccccc1)=C1/C(=O)NC(=O)N(c2ccccc2)C1=O, the AC50 [1] was 1.05 µM (active).

For Cc1ccc(C2C(C(=O)c3ccccc3)=C(O)C(=O)N2CCN2CCOCC2)o1 (configuration not stated), the AC50 [3] was 14.1 µM (inconclusive), the AC50 [2] was 25.1 µM (inconclusive) and the AC50 [5] was 7.08 µM (inconclusive).

With O=[N+]([O-])c1ccc(N2CCN(CCOCCO)CC2)c([N+](=O)[O-])c1 the IC50 [6] was 204 µM (active).

For COc1ccc(CN2CCC(C(N)=O)CC2)cc1OCc1ccccc1, the IC50 [6] was 204 µM (active).

In the case of O=C(c1ccncc1)N1CCC2(CC1)CN(c1ccc(-c3ccccc3)cc1)C2, the AC50 [3] is reported as 2.51 µM (inconclusive) and the AC50 [2] is reported as 2.51 µM (inconclusive).

In the case of Cc1cc(CSc2ccccc2)ccc1NC(=O)COc1ccccc1, the AC50 [3] is reported as 2.24 µM (inconclusive), the AC50 [4] is reported as 7.08 µM (inconclusive) and the AC50 [2] is reported as 12.6 µM (inconclusive).

For CC[C@H]1CC[C@H]2[C@@H]3CC=C4C[C@H](OC(C)=O)[C@@H](N)C[C@@]4(C)[C@H]3CC[C@@]12C, the AC50 [2] was 2.51 µM (inconclusive).

With COc1ccc(-n2c(=O)c(C)nc3cnc(N4CCNCC4)nc32)cc1 the AC50 [2] was 25.1 µM (inconclusive).

For O=C(CN1CCN(Cc2ccccc2)CC1)N1CCCc2c1c(=O)oc1ccc(O)cc21, the AC50 [4] was 6.31 µM (inconclusive) and the AC50 [2] was 3.98 µM (inconclusive).

For O=C(c1ccoc1)N1CCC2(CC1)Oc1ccc(F)cc1C(=O)C21CC(c2ccccc2)=NO1 (configuration not stated), the EC50 [7] was > 150 µM (inconclusive) and the EC50 [8] was 1.18 µM (active).

For COc1ccccc1CNCC(=O)Nc1ccccc1-n1cccc1, the IC50 [6] was 179 µM (active).

In the case of CCOC(=O)C1=C(N)Oc2cc(O)ccc2C1c1cccc(Cl)c1 (configuration not stated), the AC50 [1] is reported as 1.77 µM (active).

For COc1ccc(C(=O)N2CCC3(CCN(Cc4cc(C(F)(F)F)cc(C(F)(F)F)c4)CC3)CC2)cc1, the AC50 [2] was 25.1 µM (inconclusive).

With Nc1ccc2[nH]c(Cc3ccccc3)nc2c1 the AC50 [9] was > 380 µM (inactive), the EC50 [10] was 55.9 µM (active) and the IC50 [6] was 76.2 µM (active).

For COC(=O)C/C=C\[C@@H](C)[C@@H](/C=N\O[C@@H](C)c1cc(-c2c(C)cc(C)cc2C)no1)OC, the AC50 [3] was 2.51 µM (inconclusive) and the AC50 [5] was 3.16 µM (inconclusive).

In the case of COc1ccc(OCCn2ccnc2C)cc1, the IC50 [6] is reported as 136 µM (active).

With CC(C)NC(=O)c1ccccc1NC(=O)/C=C/c1ccc([N+](=O)[O-])cc1 the AC50 [2] was 35.5 µM (inconclusive) and the AC50 [5] was 2 µM (inconclusive).

With COc1ccc(-c2sc3ccccc3c2C#CCCO)cc1 the AC50 [1] was 4.81 µM (active).

With CCOc1ccc(OCC(=O)N(CCC2=CCCCC2)c2c(N)n(Cc3ccccc3)c(=O)[nH]c2=O)cc1 the AC50 [1] was 3.6 µM (active), the AC50 [11] was 8.66 µM (active) and the AC50 [12] was 27.3 µM (active). The AC50 [13] was 25.1 µM (active).

With COc1cc(/C=C(/C#N)c2nc3ccccc3[nH]2)ccc1OCC(=O)Nc1ccccc1C the AC50 [1] was 0.865 µM (active).

With COc1ccc2sc(-c3ccc(SC)cc3)c(-c3ccc(O)cc3)c2c1 the AC50 [1] was 2.61 µM (active).

With COC(=O)c1ccccc1NC(=O)CSc1nnc(C(CO)NC(=O)c2ccccc2Cl)n1C (configuration not stated) the AC50 [2] was 22.4 µM (inconclusive).

For CN(C)CCCC1Sc2ccccc2Sc2ccccc21 (configuration not stated), the IC50 [6] was 210 µM (active).

With COc1ccc(CCNC(=O)Cn2c(=O)oc3ccccc32)cc1OC the AC50 [4] was 12.6 µM (inconclusive), the AC50 [2] was 22.4 µM (inconclusive) and the AC50 [5] was 2.51 µM (inconclusive).

For O=C(NNC(=O)c1ccccc1-n1cccc1)c1ccccc1, the AC50 [3] was 11.2 µM (inconclusive) and the AC50 [5] was 35.5 µM (inconclusive).

For COc1cccc(OC)c1C(=O)Nc1cc(C)on1, the AC50 [3] was 39.8 µM (inconclusive), the AC50 [4] was 22.4 µM (inconclusive) and the AC50 [2] was 20 µM (inconclusive).

With CC1CCN(S(=O)(=O)c2ccc3c(c2)C(Cl)(Cl)C(=O)N3)CC1 the IC50 [6] was 60.3 µM (active).

With Cc1cccc(NC(=S)N/N=C(\c2ccccc2)C(C)C)c1 the EC50 [7] was > 150 µM (inconclusive) and the EC50 [8] was 3.98 µM (active).

For COc1cc(/C=N\NC(=O)CNC(=O)C2COc3ccccc3O2)ccc1O (configuration not stated), the IC50 [6] was 29 µM (active).

For O=c1cc(N2CCOCC2)oc2c(-c3ccccc3)cccc12 [LY-294002], the AC50 [2] was 10 µM (inconclusive) and 5.01 µM (inconclusive).

For O=C1C(CC[S+]([O-])c2ccccc2)C(=O)N(c2ccccc2)N1c1ccccc1 (configuration not stated) [SULFINPYRAZONE], the AC50 [5] was 10 µM (inconclusive).
